Literature values, collected in patent EP4434551A1, “METHOD FOR DIAGNOSING AND TREATING NIS-EXPRESSING CARCINOMAS AND METASTASES” (Nuske, Andreas, priority 2023, dated 2024).

Tested on: NIS gene
Details: breast cancer cell line MCF-7

CC1=C(/C=C/C(C)=C/C=C/C(C)=C/C(=O)O)C(C)(C)CCC1 [tRA, trans-retinoic acid]
induction of the NIS gene: induction of the NIS gene
